These results are taken from patent publication US20250136607A1 (REGOR PHARMACEUTICALS, INC., priority 2021, published 2025).

Test [1] addresses Protein arginine deiminase 4 (PAD4) (Homo sapiens, UniProt Q9UM07). Nature of the test: PAD4 ammonia release assay. The test is classed as biochemical. As to conditions: for IC50: PAD4 ammonia release assay, BAEE substrate, 60 min at RT, read-out: Average IC50 Abs; for relative potency of separated isomers in the PAD4 biochemical assay: SFC-separated stereoisomer pairs. The method, boiled down:
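PAD4 (20 nM, 2× working solution) was preincubated with compound for 15 min at RT in 100 mM HEPES pH 8.0, 2 mM CaCl2, 50 mM NaCl, 0.1 mM TCEP, BSA at 1.25% DMSO. BAEE (600 μM, 2× mix) reacted 60 min, then OPA/DTT/EDTA detection for 120 min. IC50 came from a 4-parameter fit, normalized to 50 μM reference (100%) and DMSO (0%).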

Test [2] deals with Citrullinated Histone H3 in dHL-60 cells (differentiated HL-60). Nature of the test: dHL-60 Cit-H3 ELISA assay. As to conditions: read-out: Average IC50 Abs. The test is classed as cell-based, human. Here is the method:
Cell culture: HL-60 cells were grown in IMDM+20% FBS+1% PS. The suspension cells were split into 1:5 with fresh media every 2-3 days to maintain cell density between 1×10^5 to 1×10^6 viable cells/mL. HL-60 cells differentiation: HL-60 cells were diluted to 1×10^5 cells/mL and differentiated into neutrophil-like cells with 100 mM DMF treatment for 72 hours in flask at 37° C., 5% CO2. dHL-60 Cells plating: • 1) HL-60 cells were collected, and the plate was centrifuged at 1000 rpm for 5 min. • 2) The HL-60 cells were diluted to 1.25×10^6 cells/mL and plated into a 96-well plate with 80 μL/well (i.e., 1×10^5/well). The plate was then incubated in the incubator (5% CO2, 37° C.) for 30 min to allow cells to adhere. Compound treatment: • 1) Preparation of compound serial dilution (source plate 500×, final DMSO concentration: 0.2%): briefly, compounds were dissolved in 100% DMSO to a concentration of 20 mM (the stock solution) and a 3-fold serial dilution with 8-point doses was performed. • 2) A 10× compound solution was pipetted up and down; and 10 μL/well of compounds were added into each well and incubated for 30 min. Stimulation with 25 μM A23187: • 1) A solution of A23187 (250 μM) in complete IMDM (IMDM+10% FBS+1% PS) containing 150 U/mL S7 Nuclease was prepared. The obtained solution was added 10 μL/well into each well and incubated for 3 h in the incubator (5% CO2, 37° C.). • 2) The dHL-60 cells treated with 10 μL/well complete IMDM without A23187 worked as negative control. Sample preparation: • 1) EDTA (0.5 M, 2 μL/well) were added to all the wells to stop the reaction. • 2) The plate was centrifuged at 1000 rpm for 5 min to collect supernatant. • 3) The supernatant was then diluted at least 1:2 before adding to the ELISA plate for citrullinated H3 analysis.
The standard was reconstituted with 2 mL of Assay buffer to 500 ng/mL. The reconstituted standard was relatively unstable at 4° C. and should be used within 3 hr after reconstitution.
• 1) 100 μL of the standards or diluted samples were added to the wells on the ELISA plate. • 2) The plate was covered with Cover Sheet and incubated for 2 h at room temperaturert on an orbital shaker.
On the day of the assay, the reagent was thawed at room temperaturert. For one plate, 1.2 mL of HRP Conjugate were diluted into 10.8 mL of assay buffer. A diluted HRP Conjugate was prepared shortly before use.
• 1) The wells were empties and rinsed four times with 1× wash buffer with 300 μL/well (Low speed). The plate was inverted between wash steps to empty the plate. After the last wash, the inverted plate was gently tapped on absorbent paper to remove the residual wash buffer. • 2) 100 μL of the HRP Conjugate working solution were added to each well of the plate. • 3) The plate was covered with cover sheet and incubated for 1 h at RT on an orbital shaker.
• 1) The wells were empties and rinsed four times with 1× wash buffer with 300 μL/well (low speed). The plate was inverted between wash steps to empty the plate. […] 100 uL of HRP STOP solution were added to each well of the plate.
• 1) Wipe the bottom of the plate with a clean tissue to remove fingerprints, dirt, etc. • 2) Read the plate at a wavelength of 450 nm.
The percent (%) inhibition at each concentration of compound was calculated based on and relative to the signal in the HPE and ZPE wells contained within each assay plate. The HPE wells worked as […], and the ZPE wells didn't contain any compound but rather DMSO (final concentration=0.1%) as […]. The concentrations and % inhibition values for tested compounds were plotted and the concentration of compound required for 50% inhibition (IC50) was determined with a Four-parameter logistic dose response equation. The endpoint value (IC50) for the reference peptide/compound was evaluated in each experiment as a quality control measure. If the endpoint value is within 3-fold of the expected value then the experiment is deemed acceptable. […]

Setting [3] is: Homo sapiens, HL-60, 3 h, stimulation with 25 μM A23187 for 3 h.

Like-named read-outs stand apart in the source and are kept apart here.

Sequence of Protein arginine deiminase 4 (PAD4) (Q9UM07 whole entry): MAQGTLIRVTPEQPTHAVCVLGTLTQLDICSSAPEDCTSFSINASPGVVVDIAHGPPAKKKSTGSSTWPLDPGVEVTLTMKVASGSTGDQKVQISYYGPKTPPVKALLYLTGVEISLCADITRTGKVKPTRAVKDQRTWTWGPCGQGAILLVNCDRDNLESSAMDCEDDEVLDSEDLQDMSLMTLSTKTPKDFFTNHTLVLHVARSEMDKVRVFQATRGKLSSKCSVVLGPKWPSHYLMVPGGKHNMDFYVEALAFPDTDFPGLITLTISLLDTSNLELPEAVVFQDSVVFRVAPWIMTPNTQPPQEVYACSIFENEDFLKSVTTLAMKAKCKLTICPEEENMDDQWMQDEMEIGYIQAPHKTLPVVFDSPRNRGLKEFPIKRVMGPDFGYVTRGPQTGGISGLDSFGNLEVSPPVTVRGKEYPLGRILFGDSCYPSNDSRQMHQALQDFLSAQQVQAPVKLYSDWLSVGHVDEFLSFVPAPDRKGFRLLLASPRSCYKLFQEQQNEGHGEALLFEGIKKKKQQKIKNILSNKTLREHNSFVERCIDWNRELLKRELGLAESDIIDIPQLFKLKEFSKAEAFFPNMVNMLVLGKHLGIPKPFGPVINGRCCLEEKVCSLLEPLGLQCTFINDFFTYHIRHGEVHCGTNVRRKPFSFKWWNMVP

In the case of `CC[C@H]1CNc2cccc3cc(-c4nc5cc(C(=O)N6C[C@H]7CC[C@@H]6[C@@H]7N)cc(F)c5n4C)n1c23` [Example 74, ((1R,4R,7R)-7-amino-2-azabicyclo[2.2.1]heptan-2-yl)(2-((S)-3-ethyl-2,3-dihydro-1H-pyrrolo[1,2,3-de]quinoxalin-5-yl)-7-fluoro-1-methyl-1H-benzo[d]imidazol-5-yl)methanone], in test [1], the half-maximal inhibitory concentration (IC50) is ≤ 100 nM and the “relative potency of separated isomers in the PAD4 biochemical assay” value is “more potent than Example 73”. In test [2] (setting [3]), the IC50 is ≤ 100 nM.

As for `COc1cc(C(=O)N2C[C@H](N)C[C@@H](F)C2)cc2nc(-c3cc4cccc5c4n3CCN5CCCO)n(Cc3cccs3)c12` [Example 37, ((3R,5R)-3-amino-5-fluoropiperidin-1-yl)(2-(1-(3-hydroxypropyl)-2,3-dihydro-1H-pyrrolo[1,2,3-de]quinoxalin-5-yl)-7-methoxy-1-(thiophen-2-ylmethyl)-1H-benzo[d]imidazol-5-yl)methanone], the IC50 in test [1] is ≤ 100 nM; in test [2] (setting [3]), 100 to 500 nM.

As for `CC(C)C1CN(CCCO)c2cccc3cc(-c4nc5cc(C(=O)N6C[C@H]7CC[C@@H]6[C@@H]7N)cc(F)c5n4C)n1c23` (stereo partly drawn) [Example 103, ((1R,4R,7R)-7-amino-2-azabicyclo[2.2.1]heptan-2-yl)(7-fluoro-2-(1-(3-hydroxypropyl)-3-isopropyl-2,3-dihydro-1H-pyrrolo[1,2,3-de]quinoxalin-5-yl)-1-methyl-1H-benzo[d]imidazol-5-yl)methanone], the IC50 in test [1] is 100 to 500 nM; in test [2] (Homo sapiens, HL-60, stimulation with 25 μM A23187 for 3 h), ≤ 100 nM.

Regarding `Cn1c(-c2cc3ccc4c(c3n2CC2CC2)NCC4)nc2cc(C(=O)N3C[C@H]4CC[C@@H]3[C@@H]4N)cc(F)c21` [Example 147, ((1R,4R,7R)-7-amino-2-azabicyclo[2.2.1]heptan-2-yl)(2-(1-(cyclopropylmethyl)-1,6,7,8-tetrahydropyrrolo[3,2-g]indol-2-yl)-7-fluoro-1-methyl-1H-benzo[d]imidazol-5-yl)methanone], the values for the IC50 in test [1] and in test [2] (setting [3]) were ≤ 100 nM and 100 to 500 nM, respectively.

Regarding `CCC1CN(CCCOC)c2cccc3cc(-c4nc5cc(C(=O)N6C[C@H]7CC[C@@H]6[C@@H]7N)cc(F)c5n4CC)n1c23` (stereo partly drawn) [Example 100, ((1R,4R,7R)-7-amino-2-azabicyclo[2.2.1]heptan-2-yl)(1-ethyl-2-(3-ethyl-1-(3-methoxypropyl)-2,3-dihydro-1H-pyrrolo[1,2,3-de]quinoxalin-5-yl)-7-fluoro-1H-benzo[d]imidazol-5-yl)methanone], the half-inhibitory concentration (IC50) in test [1] and in test [2] (setting [3]) was 100 to 500 nM in each case.

On to `Cn1c(-c2cc3cccc4c3n2[C@@H](C2CC2)CN4)nc2cc(C(=O)N3C[C@H]4CC[C@@H]3[C@@H]4N)cc(F)c21` (single isomer, unassigned) [Example 110], for which the IC50 in test [1] and in test [2] (setting [3]) was ≤ 100 nM each time.

For `CCC1CN(CCCO)c2cccc3cc(-c4nc5cc(C(=O)N6C[C@H](N)C[C@@H](F)C6)cc(OC)c5n4C)n1c23` (stereo partly drawn) [Example 80, ((3R,5R)-3-amino-5-fluoropiperidin-1-yl)(2-(3-ethyl-1-(3-hydroxypropyl)-2,3-dihydro-1H-pyrrolo[1,2,3-de]quinoxalin-5-yl)-7-methoxy-1-methyl-1H-benzo[d]imidazol-5-yl)methanone], the IC50 in test [1] and in test [2] (setting [3]) was 100 to 500 nM in each case.

As for `COc1cc(C(=O)N2CCC[C@@H](N)C2)cc2nc(-c3cc4cccc5c4n3CCN5CCCO)n(C)c12` [Example 12, (R)-(3-aminopiperidin-1-yl)(2-(1-(3-hydroxypropyl)-2,3-dihydro-1H-pyrrolo[1,2,3-de]quinoxalin-5-yl)-7-methoxy-1-methyl-1H-benzo[d]imidazol-5-yl)methanone], the half-inhibitory concentration (IC50) in test [1] fell in the range of 100 to 500 nM; in test [2] (setting [3]) it was 500 to 5000 nM.

Take `COc1cc(C(=O)N2C[C@H](N)C[C@@H](F)C2)cc2nc(-c3cc4cccc5c4n3CCN5CCCO)n(CC(F)(F)F)c12` [Example 23, ((3R,5R)-3-amino-5-fluoropiperidin-1-yl)(2-(1-(3-hydroxypropyl)-2,3-dihydro-1H-pyrrolo[1,2,3-de]quinoxalin-5-yl)-7-methoxy-1-(2,2,2-trifluoroethyl)-1H-benzo[d]imidazol-5-yl)methanone]: the concentration for half-maximal inhibition (IC50) in test [1] and in test [2] (setting [3]) was 100 to 500 nM in each case.

Consider `Cn1c(-c2cc3ccc4cn[nH]c4c3n2CC2CC2)nc2cc(C(=O)N3C[C@H]4CC[C@@H]3[C@@H]4N)cc(F)c21` [Example 157, ((1R,4R,7R)-7-amino-2-azabicyclo[2.2.1]heptan-2-yl)(2-(8-(cyclopropylmethyl)-1,8-dihydropyrrolo[3,2-g]indazol-7-yl)-7-fluoro-1-methyl-1H-benzo[d]imidazol-5-yl)methanone], for which the IC50 in test [1] and in test [2] (setting [3]) was ≤ 100 nM in each case.

For the compound `Cn1c(-c2cc3cccc4c3n2[C@@H](C2CC2)CN4CCCO)nc2cc(C(=O)N3C[C@H]4CC[C@@H]3[C@@H]4N)cc(F)c21` (single isomer, unassigned) [Example 112], the IC50 in test [1] and in test [2] (setting [3]) was ≤ 100 nM each time.

For the compound `CC(C)[C@H]1CNc2cccc3cc(-c4nc5cc(C(=O)N6C[C@H]7CC[C@@H]6[C@@H]7N)cc(F)c5n4C)n1c23` [Example 106, ((1R,4R,7R)-7-amino-2-azabicyclo[2.2.1]heptan-2-yl)(7-fluoro-2-((S)-3-isopropyl-2,3-dihydro-1H-pyrrolo[1,2,3-de]quinoxalin-5-yl)-1-methyl-1H-benzo[d]imidazol-5-yl)methanone], in test [1], the IC50 lay in the range of 100 to 500 nM and the “relative potency of separated isomers in the PAD4 biochemical assay” value is recorded as “more potent than Example 105”. The IC50 in test [2] (setting [3]) was ≤ 100 nM.

Take `CCC1CN(CCCO)c2cccc3cc(-c4nc5cc(C(=O)N6C[C@H](N)C[C@@H](F)C6)cc(OC)c5n4C)n1c23` (single isomer, unassigned) [Example 81]: the results for the IC50 in test [1] and in test [2] (stimulation with 25 μM A23187 for 3 h) were 500 to 5000 nM and > 5000 nM, respectively.

`Cn1c(-c2cc3cccc4c3n2C(C2CCC2)CN4)nc2cc(C(=O)N3C[C@H]4CC[C@@H]3[C@@H]4N)cc(F)c21` (stereo partly drawn) [Example 164, ((1R,4R,7R)-7-amino-2-azabicyclo[2.2.1]heptan-2-yl)(2-(3-cyclobutyl-2,3-dihydro-1H-pyrrolo[1,2,3-de]quinoxalin-5-yl)-7-fluoro-1-methyl-1H-benzo[d]imidazol-5-yl)methanone]: the IC50 was 100 to 500 nM in test [1] and ≤ 100 nM in test [2] (setting [3]).

Take `COc1cc(C(=O)N2C[C@H](N)C[C@@H](F)C2)cc2nc(-c3cc4cccc5c4n3CCN5CCCO)n(C)c12` [Example 13]: the figures for the IC50 in test [1] and in test [2] (setting [3]) were 100 to 500 nM and 500 to 5000 nM, respectively.

As for `Cn1c(-c2cc3ccc(C#N)c4c3n2[C@@H](C2CC2)CN4)nc2cc(C(=O)N3C[C@H]4CC[C@@H]3[C@@H]4N)cc(F)c21` (single isomer, unassigned) [Example 115], the IC50 in test [1] and in test [2] (setting [3]) was ≤ 100 nM each time.
